Measurements taken from ChEMBL document CHEMBL4507315 (2021).

Assays:
[1] = molecular target: 5-hydroxytryptamine receptor 1E (Homo sapiens) (UniProt P28566); conditions: Compound concentration 10.0 uM
[2] = molecular target: Dual specificity mitogen-activated protein kinase kinase 3 (Homo sapiens) (UniProt P46734); conditions: Compound concentration 100.0 nM
[3] = molecular target: Mast/stem cell growth factor receptor Kit (Homo sapiens) (UniProt P10721); conditions: Compound concentration 100.0 nM
[4] = molecular target: Ephrin type-B receptor 2 (Homo sapiens) (UniProt P29323); conditions: Compound concentration 100.0 nM
[5] = molecular target: Serine/threonine-protein kinase 32B (Homo sapiens) (UniProt Q9NY57); conditions: Compound concentration 100.0 nM
[6] = tested on: Epidermal growth factor receptor (Homo sapiens), P00533 [L858R]; conditions: Compound concentration 100.0 nM
[7] = molecular target: Serine/threonine-protein kinase NLK (Homo sapiens) (UniProt Q9UBE8); conditions: Compound concentration 100.0 nM
[8] = molecular target: Ephrin type-A receptor 7 (Homo sapiens) (UniProt Q15375); conditions: Compound concentration 100.0 nM
[9] = molecular target: Macrophage colony-stimulating factor 1 receptor (Homo sapiens) (UniProt P07333); conditions: Compound concentration 100.0 nM
[10] = molecular target: LIM domain kinase 2 (Homo sapiens) (UniProt P53671); conditions: Compound concentration 100.0 nM
[11] = tested on: Phosphatidylinositol 4,5-bisphosphate 3-kinase catalytic subunit alpha isoform (Homo sapiens), P42336 [I800L]; conditions: Compound concentration 100.0 nM
[12] = molecular target: Serine/threonine-protein kinase 36 (Homo sapiens) (UniProt Q9NRP7); conditions: Compound concentration 100.0 nM
[13] = molecular target: Tyrosine-protein kinase Lck (Homo sapiens) (UniProt P06239); conditions: Compound concentration 100.0 nM
[14] = molecular target: Tyrosine-protein kinase receptor Tie-1 (Homo sapiens) (UniProt P35590); conditions: Compound concentration 100.0 nM
[15] = molecular target: Serine/threonine-protein kinase SIK3 (Homo sapiens) (UniProt Q9Y2K2); conditions: Compound concentration 100.0 nM
[16] = molecular target: GABA-A receptor; anion channel (Rattus norvegicus) (UniProt O09028+P15431+P18506+P18508+P19969+P20236+P23574+P23576+P28471+P28473+P30191+P62813+P63079+P63138+Q91ZM7+Q9ES14); conditions: Compound concentration 10.0 uM
[17] = molecular target: Cyclin-dependent kinase 4 (Homo sapiens) (UniProt P11802); conditions: Compound concentration 100.0 nM
[18] = molecular target: Serine/threonine-protein kinase DCLK2 (Homo sapiens) (UniProt Q8N568); conditions: Compound concentration 100.0 nM
[19] = molecular target: Mitogen-activated protein kinase kinase kinase kinase 4 (Homo sapiens) (UniProt O95819); conditions: Compound concentration 100.0 nM
[20] = molecular target: Tyrosine-protein kinase ZAP-70 (Homo sapiens) (UniProt P43403); conditions: Compound concentration 100.0 nM
[21] = molecular target: Serine/threonine-protein kinase 25 (Homo sapiens) (UniProt O00506); conditions: Compound concentration 100.0 nM
[22] = molecular target: Dual specificity mitogen-activated protein kinase kinase 4 (Homo sapiens) (UniProt P45985); conditions: Compound concentration 100.0 nM
[23] = molecular target: Tyrosine-protein kinase Mer (Homo sapiens) (UniProt Q12866); conditions: Compound concentration 100.0 nM
[24] = molecular target: Tyrosine-protein kinase BTK (Homo sapiens) (UniProt Q06187); conditions: Compound concentration 100.0 nM
[25] = tested on: Phosphatidylinositol 4,5-bisphosphate 3-kinase catalytic subunit alpha isoform (Homo sapiens), P42336 [M1043I]; conditions: Compound concentration 100.0 nM
[26] = molecular target: Serine/threonine-protein kinase TBK1 (Homo sapiens) (UniProt Q9UHD2); conditions: Compound concentration 100.0 nM
[27] = molecular target: Calcium/calmodulin-dependent protein kinase type II subunit beta (Homo sapiens) (UniProt Q13554); conditions: Compound concentration 100.0 nM
[28] = molecular target: Serine/threonine-protein kinase PLK1 (Homo sapiens) (UniProt P53350); conditions: Compound concentration 100.0 nM
[29] = molecular target: Serine/threonine-protein kinase WNK2 (Homo sapiens) (UniProt Q9Y3S1); conditions: Compound concentration 100.0 nM
[30] = tested on: ALK tyrosine kinase receptor (Homo sapiens), Q9UM73 [L1196M]; conditions: Compound concentration 100.0 nM
[31] = molecular target: Dual specificity mitogen-activated protein kinase kinase 1 (Homo sapiens) (UniProt Q02750); conditions: Compound concentration 100.0 nM
[32] = molecular target: Serine/threonine-protein kinase SBK1 (Homo sapiens) (UniProt Q52WX2); conditions: Compound concentration 100.0 nM
[33] = molecular target: Angiopoietin-1 receptor (Homo sapiens) (UniProt Q02763); conditions: Compound concentration 100.0 nM
[34] = molecular target: Serine/threonine-protein kinase MARK2 (Homo sapiens) (UniProt Q7KZI7); conditions: Compound concentration 100.0 nM
[35] = molecular target: Ephrin type-B receptor 1 (Homo sapiens) (UniProt P54762); conditions: Compound concentration 100.0 nM
[36] = molecular target: MAP kinase-activated protein kinase 5 (Homo sapiens) (UniProt Q8IW41); conditions: Compound concentration 100.0 nM
[37] = tested on: Mast/stem cell growth factor receptor Kit (Homo sapiens), P10721 [D816V]; conditions: Compound concentration 100.0 nM
[38] = molecular target: Tyrosine-protein kinase receptor UFO (Homo sapiens) (UniProt P30530); conditions: Compound concentration 100.0 nM
[39] = molecular target: Muscle, skeletal receptor tyrosine-protein kinase (Homo sapiens) (UniProt O15146); conditions: Compound concentration 100.0 nM
[40] = molecular target: STE20-like serine/threonine-protein kinase (Homo sapiens) (UniProt Q9H2G2); conditions: Compound concentration 100.0 nM
[41] = tested on: Tyrosine-protein kinase ABL1 (Homo sapiens), P00519 [M351T]; conditions: Compound concentration 100.0 nM
[42] = molecular target: Serine/threonine-protein kinase RIO3 (Homo sapiens) (UniProt O14730); conditions: Compound concentration 100.0 nM
[43] = molecular target: Serine/threonine-protein kinase RIO2 (Homo sapiens) (UniProt Q9BVS4); conditions: Compound concentration 100.0 nM

Chain of Ephrin type-B receptor 1 (Homo sapiens) (P54762 whole entry): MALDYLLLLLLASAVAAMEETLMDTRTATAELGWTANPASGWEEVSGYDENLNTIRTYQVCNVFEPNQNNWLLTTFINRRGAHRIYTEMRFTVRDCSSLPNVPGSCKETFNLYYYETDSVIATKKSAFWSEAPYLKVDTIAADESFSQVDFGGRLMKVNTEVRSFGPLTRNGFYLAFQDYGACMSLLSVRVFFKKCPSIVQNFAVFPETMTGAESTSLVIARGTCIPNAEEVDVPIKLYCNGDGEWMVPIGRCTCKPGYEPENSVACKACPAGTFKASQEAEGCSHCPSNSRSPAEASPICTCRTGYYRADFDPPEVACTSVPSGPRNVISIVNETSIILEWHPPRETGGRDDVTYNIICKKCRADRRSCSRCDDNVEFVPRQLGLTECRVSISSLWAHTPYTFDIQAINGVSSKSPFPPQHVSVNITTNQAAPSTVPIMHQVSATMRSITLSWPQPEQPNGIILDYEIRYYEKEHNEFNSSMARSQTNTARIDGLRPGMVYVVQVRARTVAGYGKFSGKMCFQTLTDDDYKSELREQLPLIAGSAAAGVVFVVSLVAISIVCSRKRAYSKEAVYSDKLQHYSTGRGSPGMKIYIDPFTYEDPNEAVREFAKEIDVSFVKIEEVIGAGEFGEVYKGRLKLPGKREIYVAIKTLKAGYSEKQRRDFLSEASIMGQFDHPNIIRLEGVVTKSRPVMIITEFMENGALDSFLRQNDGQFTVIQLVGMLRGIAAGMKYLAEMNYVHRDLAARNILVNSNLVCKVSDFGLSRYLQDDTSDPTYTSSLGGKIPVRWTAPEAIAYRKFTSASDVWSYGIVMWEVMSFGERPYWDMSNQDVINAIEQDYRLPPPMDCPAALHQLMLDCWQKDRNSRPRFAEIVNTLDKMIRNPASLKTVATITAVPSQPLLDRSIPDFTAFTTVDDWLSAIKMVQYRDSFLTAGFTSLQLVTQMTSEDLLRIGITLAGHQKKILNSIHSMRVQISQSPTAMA
Chain of Cyclin-dependent kinase 4 (Homo sapiens) (P11802 whole entry): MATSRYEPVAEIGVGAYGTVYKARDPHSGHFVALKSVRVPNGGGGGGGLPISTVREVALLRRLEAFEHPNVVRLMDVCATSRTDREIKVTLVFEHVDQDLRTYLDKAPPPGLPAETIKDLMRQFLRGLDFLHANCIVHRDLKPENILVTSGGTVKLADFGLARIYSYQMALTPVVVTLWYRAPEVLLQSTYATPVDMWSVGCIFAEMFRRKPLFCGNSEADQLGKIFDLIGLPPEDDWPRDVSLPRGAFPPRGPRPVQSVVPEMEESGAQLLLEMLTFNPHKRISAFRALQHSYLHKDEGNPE
Chain of Angiopoietin-1 receptor (Homo sapiens) (Q02763 whole entry): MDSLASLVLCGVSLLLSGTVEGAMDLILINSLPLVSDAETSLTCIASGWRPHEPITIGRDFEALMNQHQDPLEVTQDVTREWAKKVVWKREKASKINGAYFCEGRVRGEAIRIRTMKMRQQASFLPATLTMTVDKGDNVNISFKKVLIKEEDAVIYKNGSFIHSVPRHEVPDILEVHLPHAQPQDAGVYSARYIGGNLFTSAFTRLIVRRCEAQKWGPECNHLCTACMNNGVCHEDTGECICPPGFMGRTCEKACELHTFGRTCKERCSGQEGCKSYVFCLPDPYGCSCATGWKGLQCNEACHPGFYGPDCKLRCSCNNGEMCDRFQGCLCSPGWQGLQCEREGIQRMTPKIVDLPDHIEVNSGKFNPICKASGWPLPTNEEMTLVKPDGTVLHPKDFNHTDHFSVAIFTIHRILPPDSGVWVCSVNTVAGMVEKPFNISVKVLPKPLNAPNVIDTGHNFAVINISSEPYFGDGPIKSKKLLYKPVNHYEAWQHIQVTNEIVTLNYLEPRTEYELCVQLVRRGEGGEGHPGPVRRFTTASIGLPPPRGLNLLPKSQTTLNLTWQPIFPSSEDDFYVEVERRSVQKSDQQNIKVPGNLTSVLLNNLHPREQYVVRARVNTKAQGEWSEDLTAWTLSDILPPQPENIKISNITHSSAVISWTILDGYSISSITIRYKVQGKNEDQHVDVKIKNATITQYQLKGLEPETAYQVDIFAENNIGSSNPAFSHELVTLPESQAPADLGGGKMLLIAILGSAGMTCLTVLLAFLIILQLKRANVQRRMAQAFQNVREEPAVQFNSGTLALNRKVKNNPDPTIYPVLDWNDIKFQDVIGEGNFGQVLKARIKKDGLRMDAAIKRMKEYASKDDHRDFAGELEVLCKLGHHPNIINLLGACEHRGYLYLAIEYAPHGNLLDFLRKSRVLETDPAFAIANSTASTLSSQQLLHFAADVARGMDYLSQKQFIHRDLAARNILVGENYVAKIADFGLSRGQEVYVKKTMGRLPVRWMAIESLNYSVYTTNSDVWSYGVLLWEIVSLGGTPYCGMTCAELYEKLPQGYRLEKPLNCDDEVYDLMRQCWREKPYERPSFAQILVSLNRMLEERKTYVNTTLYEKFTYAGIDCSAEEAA
Chain of Serine/threonine-protein kinase SIK3 (Homo sapiens) (Q9Y2K2 whole entry, looked up): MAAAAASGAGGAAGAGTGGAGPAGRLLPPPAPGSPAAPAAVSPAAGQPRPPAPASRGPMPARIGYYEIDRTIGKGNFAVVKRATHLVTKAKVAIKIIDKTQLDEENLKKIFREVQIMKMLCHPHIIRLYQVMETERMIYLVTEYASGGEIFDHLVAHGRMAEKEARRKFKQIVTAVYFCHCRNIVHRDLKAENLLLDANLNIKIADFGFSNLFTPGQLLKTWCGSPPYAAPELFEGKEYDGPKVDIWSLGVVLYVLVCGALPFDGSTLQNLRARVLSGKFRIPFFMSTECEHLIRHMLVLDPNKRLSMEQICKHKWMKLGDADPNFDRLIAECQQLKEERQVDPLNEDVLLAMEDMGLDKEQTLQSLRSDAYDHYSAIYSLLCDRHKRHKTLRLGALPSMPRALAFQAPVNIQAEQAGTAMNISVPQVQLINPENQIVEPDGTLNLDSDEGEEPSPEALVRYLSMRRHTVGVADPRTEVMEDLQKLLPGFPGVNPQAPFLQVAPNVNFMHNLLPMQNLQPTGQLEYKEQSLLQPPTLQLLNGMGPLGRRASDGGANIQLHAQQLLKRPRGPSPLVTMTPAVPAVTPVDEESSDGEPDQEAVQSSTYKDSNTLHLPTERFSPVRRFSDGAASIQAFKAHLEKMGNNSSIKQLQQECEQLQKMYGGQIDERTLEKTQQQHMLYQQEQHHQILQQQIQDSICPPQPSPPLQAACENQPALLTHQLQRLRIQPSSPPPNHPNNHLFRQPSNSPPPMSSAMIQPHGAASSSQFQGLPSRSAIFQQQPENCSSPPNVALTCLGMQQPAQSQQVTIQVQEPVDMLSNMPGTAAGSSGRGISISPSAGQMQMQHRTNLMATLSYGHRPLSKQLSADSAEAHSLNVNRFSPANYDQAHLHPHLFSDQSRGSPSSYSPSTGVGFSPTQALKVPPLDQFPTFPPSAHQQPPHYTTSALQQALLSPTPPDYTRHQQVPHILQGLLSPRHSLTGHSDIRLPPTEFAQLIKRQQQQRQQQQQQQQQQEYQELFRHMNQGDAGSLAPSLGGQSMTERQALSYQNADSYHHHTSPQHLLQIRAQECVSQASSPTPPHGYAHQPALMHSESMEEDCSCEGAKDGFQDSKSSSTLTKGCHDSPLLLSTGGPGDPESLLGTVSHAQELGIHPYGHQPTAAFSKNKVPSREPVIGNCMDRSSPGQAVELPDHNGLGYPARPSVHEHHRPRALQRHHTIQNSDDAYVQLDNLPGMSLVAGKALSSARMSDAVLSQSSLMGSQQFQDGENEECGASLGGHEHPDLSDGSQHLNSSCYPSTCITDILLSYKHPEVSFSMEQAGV
Chain of Serine/threonine-protein kinase TBK1 (Homo sapiens) (Q9UHD2 whole entry): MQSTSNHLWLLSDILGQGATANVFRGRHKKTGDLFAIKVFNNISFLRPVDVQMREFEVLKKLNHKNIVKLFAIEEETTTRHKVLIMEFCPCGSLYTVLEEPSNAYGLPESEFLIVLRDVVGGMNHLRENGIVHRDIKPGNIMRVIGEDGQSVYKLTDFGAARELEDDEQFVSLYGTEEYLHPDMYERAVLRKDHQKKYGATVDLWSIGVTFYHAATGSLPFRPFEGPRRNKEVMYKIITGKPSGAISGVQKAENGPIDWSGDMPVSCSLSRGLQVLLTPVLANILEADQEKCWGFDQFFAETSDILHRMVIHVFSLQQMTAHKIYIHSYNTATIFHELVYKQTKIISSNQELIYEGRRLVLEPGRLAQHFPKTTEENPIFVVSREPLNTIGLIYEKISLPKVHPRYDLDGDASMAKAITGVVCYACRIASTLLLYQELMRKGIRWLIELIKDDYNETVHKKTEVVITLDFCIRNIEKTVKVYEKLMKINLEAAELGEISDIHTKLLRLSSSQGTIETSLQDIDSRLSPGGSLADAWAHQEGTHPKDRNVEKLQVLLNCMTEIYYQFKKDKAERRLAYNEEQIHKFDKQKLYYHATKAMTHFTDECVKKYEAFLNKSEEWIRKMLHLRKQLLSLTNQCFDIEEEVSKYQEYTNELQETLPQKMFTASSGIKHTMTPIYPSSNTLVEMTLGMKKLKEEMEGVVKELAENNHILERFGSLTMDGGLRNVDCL
Chain of Tyrosine-protein kinase Lck (Homo sapiens) (P06239 2-509 limits assumed): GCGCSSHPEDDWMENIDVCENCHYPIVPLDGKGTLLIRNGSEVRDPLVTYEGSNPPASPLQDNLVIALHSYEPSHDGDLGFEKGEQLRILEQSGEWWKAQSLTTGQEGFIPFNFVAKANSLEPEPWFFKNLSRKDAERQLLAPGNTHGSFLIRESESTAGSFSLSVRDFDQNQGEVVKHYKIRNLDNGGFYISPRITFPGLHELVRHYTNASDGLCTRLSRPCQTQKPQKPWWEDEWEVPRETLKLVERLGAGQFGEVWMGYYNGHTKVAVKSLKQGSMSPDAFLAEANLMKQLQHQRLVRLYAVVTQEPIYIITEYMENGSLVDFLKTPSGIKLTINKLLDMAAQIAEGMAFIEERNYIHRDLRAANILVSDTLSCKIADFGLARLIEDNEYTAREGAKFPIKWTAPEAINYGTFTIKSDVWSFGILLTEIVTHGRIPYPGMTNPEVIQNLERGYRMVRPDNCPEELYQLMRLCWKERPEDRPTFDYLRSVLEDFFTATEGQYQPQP

O=C(NCCCC1CCCCC1)c1ccc(CNC(=O)c2cnn(-c3ccccc3)c2C(F)(F)F)cc1 [SR-321]
inactive: inhibition [1] -6.92% | residual activity [2] 100% | residual activity [3] 100% | residual activity [4] 100% | residual activity [5] 100% | residual activity [6] 100% | residual activity [7] 100% | residual activity [8] 86% | residual activity [9] 100% | residual activity [10] 100% | residual activity [11] 70% | residual activity [12] 100% | residual activity [13] 100% | residual activity [14] 100% | residual activity [15] 76% | inhibition [16] 14% | residual activity [17] 100% | residual activity [18] 100% | residual activity [19] 81% | residual activity [20] 100% | residual activity [21] 81% | residual activity [22] 100% | residual activity [23] 100% | residual activity [24] 100% | residual activity [25] 68% | residual activity [26] 100% | residual activity [27] 96% | residual activity [28] 93% | residual activity [29] 100% | residual activity [30] 100% | residual activity [31] 89% | residual activity [32] 100% | residual activity [33] 100% | residual activity [34] 100% | residual activity [35] 89% | residual activity [36] 100% | residual activity [37] 100% | residual activity [38] 95% | residual activity [39] 100% | residual activity [40] 100% | residual activity [41] 100% | residual activity [42] 100% | residual activity [43] 100%

Nc1c(C(=O)NCc2ccc(C(=O)NCCCC3CCCCC3)cc2)cnn1-c1ccccc1 [SR-318]
inactive: inhibition [1] 1% | residual activity [2] 85% | residual activity [3] 70% | residual activity [4] 100% | residual activity [5] 100% | residual activity [6] 100% | residual activity [7] 96% | residual activity [8] 100% | residual activity [9] 91% | residual activity [10] 100% | residual activity [11] 96% | residual activity [12] 100% | residual activity [13] 82% | residual activity [14] 100% | residual activity [15] 94% | inhibition [16] 13.3% | residual activity [17] 100% | residual activity [18] 100% | residual activity [19] 87% | residual activity [20] 100% | residual activity [21] 82% | residual activity [22] 100% | residual activity [23] 100% | residual activity [24] 100% | residual activity [25] 100% | residual activity [26] 96% | residual activity [27] 100% | residual activity [28] 100% | residual activity [29] 100% | residual activity [30] 100% | residual activity [31] 100% | residual activity [32] 82% | residual activity [33] 100% | residual activity [34] 65% | residual activity [35] 100% | residual activity [36] 93% | residual activity [37] 100% | residual activity [38] 87% | residual activity [39] 97% | residual activity [40] 80% | residual activity [41] 86% | residual activity [42] 100% | residual activity [43] 92%
